Experimental data reported in ChEMBL document CHEMBL4804284.

What was measured:
Parameters in all cases: scale not given: the % may be the effect or the level left
[1] = target: G protein-coupled receptor kinase 4 (Homo sapiens) (UniProt P32298); test: Inhibition of DNA-tagged human GRK4 assessed as percent of control at 50000 nM by qPCR analysis relative to control
[2] = target: BMP-2-inducible protein kinase (Homo sapiens) (UniProt Q9NSY1); test: Inhibition of DNA-tagged human BIKE assessed as percent of control at 50000 nM by qPCR analysis relative to control
[3] = target: Tyrosine-protein kinase Tec (Homo sapiens) (UniProt P42680); test: Inhibition of DNA-tagged human TEC assessed as percent of control at 50000 nM by qPCR analysis relative to control
[4] = target: cGMP-dependent protein kinase 1 (Homo sapiens) (UniProt Q13976); test: Inhibition of DNA-tagged human PRKG1 assessed as percent of control at 50000 nM by qPCR analysis relative to control
[5] = target: RAC-gamma serine/threonine-protein kinase (Homo sapiens) (UniProt Q9Y243); test: Inhibition of DNA-tagged human AKT3 assessed as percent of control at 50000 nM by qPCR analysis relative to control
[6] = target: Mitogen-activated protein kinase kinase kinase 15 (Homo sapiens) (UniProt Q6ZN16); test: Inhibition of DNA-tagged human MAP3K15 assessed as percent of control at 50000 nM by qPCR analysis relative to control
[7] = target: Receptor tyrosine-protein kinase erbB-4 (Homo sapiens) (UniProt Q15303); test: Inhibition of DNA-tagged human ERBB4 assessed as percent of control at 50000 nM by qPCR analysis relative to control
[8] = target: Ribosomal protein S6 kinase alpha-5 (Homo sapiens) (UniProt O75582); test: Inhibition of DNA-tagged human C-terminal RPS6KA5 kinase domain 2 assessed as percent of control at 50000 nM by qPCR analysis relative to control
[9] = target: Casein kinase I isoform epsilon (Homo sapiens) (UniProt P49674); test: Inhibition of DNA-tagged human CSNK1E assessed as percent of control at 50000 nM by qPCR analysis relative to control
[10] = target: Serine/threonine-protein kinase Nek9 (Homo sapiens) (UniProt Q8TD19); test: Inhibition of DNA-tagged human NEK9 assessed as percent of control at 50000 nM by qPCR analysis relative to control
[11] = target: Serine/threonine-protein kinase Nek4 (Homo sapiens) (UniProt P51957); test: Inhibition of DNA-tagged human NEK4 assessed as percent of control at 50000 nM by qPCR analysis relative to control
[12] = target: Death-associated protein kinase 3 (Homo sapiens) (UniProt O43293); test: Inhibition of DNA-tagged human DAPK3 assessed as percent of control at 50000 nM by qPCR analysis relative to control
[13] = target: Ribosomal protein S6 kinase alpha-2 (Homo sapiens) (UniProt Q15349); test: Inhibition of DNA-tagged human N-terminal RSK3 kinase domain 1 assessed as percent of control at 50000 nM by qPCR analysis relative to control
[14] = target: Serine/threonine-protein kinase SIK3 (Homo sapiens) (UniProt Q9Y2K2); test: Inhibition of DNA-tagged human QSK assessed as percent of control at 50000 nM by qPCR analysis relative to control
[15] = target: Mitogen-activated protein kinase kinase kinase 1 (Homo sapiens) (UniProt Q13233); test: Inhibition of DNA-tagged human MAP3K1 assessed as percent of control at 50000 nM by qPCR analysis relative to control
[16] = target: Cyclin-dependent kinase 14 (Homo sapiens) (UniProt O94921); test: Inhibition of DNA-tagged human PFTK1 assessed as percent of control at 50000 nM by qPCR analysis relative to control
[17] = target: Phosphatidylinositol 5-phosphate 4-kinase type-2 gamma (Homo sapiens) (UniProt Q8TBX8); test: Inhibition of DNA-tagged human PIP5K2C assessed as percent of control at 50000 nM by qPCR analysis relative to control
[18] = target: Homeodomain-interacting protein kinase 2 (Homo sapiens) (UniProt Q9H2X6); test: Inhibition of DNA-tagged human HIPK2 assessed as percent of control at 50000 nM by qPCR analysis relative to control
[19] = target: Interleukin-1 receptor-associated kinase 4 (Homo sapiens) (UniProt Q9NWZ3); test: Inhibition of DNA-tagged human IRAK4 assessed as percent of control at 50000 nM by qPCR analysis relative to control
[20] = target: Inhibitor of nuclear factor kappa-B kinase subunit epsilon (Homo sapiens) (UniProt Q14164); test: Inhibition of DNA-tagged human IKK-epsilon assessed as percent of control at 50000 nM by qPCR analysis relative to control
[21] = system: Epidermal growth factor receptor (Homo sapiens), P00533 [G719C]; test: Inhibition of DNA-tagged human EGFR G719C mutant assessed as percent of control at 50000 nM by qPCR analysis relative to control
[22] = target: Tyrosine-protein kinase HCK (Homo sapiens) (UniProt P08631); test: Inhibition of DNA-tagged human HCK assessed as percent of control at 50000 nM by qPCR analysis relative to control
[23] = target: Serine/threonine-protein kinase 17A (Homo sapiens) (UniProt Q9UEE5); test: Inhibition of DNA-tagged human DRAK1 assessed as percent of control at 50000 nM by qPCR analysis relative to control
[24] = target: Dual specificity tyrosine-phosphorylation-regulated kinase 2 (Homo sapiens) (UniProt Q92630); test: Inhibition of DNA-tagged human DYRK2 assessed as percent of control at 50000 nM by qPCR analysis relative to control
[25] = target: Rho-associated protein kinase 1 (Homo sapiens) (UniProt Q13464); test: Inhibition of DNA-tagged human ROCK1 assessed as percent of control at 50000 nM by qPCR analysis relative to control
[26] = target: Ephrin type-A receptor 4 (Homo sapiens) (UniProt P54764); test: Inhibition of DNA-tagged human EPHA4 assessed as percent of control at 50000 nM by qPCR analysis relative to control
[27] = target: Ribosomal protein S6 kinase alpha-4 (Homo sapiens) (UniProt O75676); test: Inhibition of DNA-tagged human N-terminal RPS6KA4 kinase domain assessed as percent of control at 50000 nM by qPCR analysis relative to control
[28] = target: Dual specificity mitogen-activated protein kinase kinase 3 (Homo sapiens) (UniProt P46734); test: Inhibition of DNA-tagged human MEK3 assessed as percent of control at 50000 nM by qPCR analysis relative to control
[29] = target: Mitogen-activated protein kinase kinase kinase 9 (Homo sapiens) (UniProt P80192); test: Inhibition of DNA-tagged human MLK1 assessed as percent of control at 50000 nM by qPCR analysis relative to control
[30] = target: Mitogen-activated protein kinase kinase kinase 12 (Homo sapiens) (UniProt Q12852); test: Inhibition of DNA-tagged human DLK assessed as percent of control at 50000 nM by qPCR analysis relative to control

Chain of Mitogen-activated protein kinase kinase kinase 9 (Homo sapiens) (P80192 whole entry, looked up): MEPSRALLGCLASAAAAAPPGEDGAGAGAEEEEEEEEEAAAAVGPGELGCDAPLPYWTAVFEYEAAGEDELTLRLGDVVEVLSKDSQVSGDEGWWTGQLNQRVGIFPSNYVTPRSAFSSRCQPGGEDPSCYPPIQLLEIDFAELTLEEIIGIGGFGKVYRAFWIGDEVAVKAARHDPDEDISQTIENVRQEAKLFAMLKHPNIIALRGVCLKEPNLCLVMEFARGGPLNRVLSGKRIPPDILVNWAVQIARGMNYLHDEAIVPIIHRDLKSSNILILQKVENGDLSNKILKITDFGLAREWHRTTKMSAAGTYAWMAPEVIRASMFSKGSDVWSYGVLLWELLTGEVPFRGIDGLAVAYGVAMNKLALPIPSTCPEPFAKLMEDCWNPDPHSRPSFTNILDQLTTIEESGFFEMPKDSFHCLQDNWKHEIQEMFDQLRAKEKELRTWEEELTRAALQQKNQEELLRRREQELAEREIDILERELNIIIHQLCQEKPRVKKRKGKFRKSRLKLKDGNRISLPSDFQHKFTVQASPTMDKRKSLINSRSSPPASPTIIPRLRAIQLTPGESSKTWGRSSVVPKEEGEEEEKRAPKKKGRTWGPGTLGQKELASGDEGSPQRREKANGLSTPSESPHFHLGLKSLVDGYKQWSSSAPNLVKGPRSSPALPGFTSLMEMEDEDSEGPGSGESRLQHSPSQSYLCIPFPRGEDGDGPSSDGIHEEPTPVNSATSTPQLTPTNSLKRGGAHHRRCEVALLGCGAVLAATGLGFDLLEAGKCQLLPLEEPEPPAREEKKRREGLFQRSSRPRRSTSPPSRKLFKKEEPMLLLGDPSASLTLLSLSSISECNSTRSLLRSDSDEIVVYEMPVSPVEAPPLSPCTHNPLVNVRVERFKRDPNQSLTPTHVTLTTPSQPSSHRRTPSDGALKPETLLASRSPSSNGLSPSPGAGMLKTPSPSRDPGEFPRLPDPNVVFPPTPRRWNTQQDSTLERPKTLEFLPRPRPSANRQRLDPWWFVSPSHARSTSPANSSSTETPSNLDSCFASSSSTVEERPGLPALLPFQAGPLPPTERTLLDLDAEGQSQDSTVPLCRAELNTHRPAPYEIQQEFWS
Chain of BMP-2-inducible protein kinase (Homo sapiens) (Q9NSY1 whole entry, looked up): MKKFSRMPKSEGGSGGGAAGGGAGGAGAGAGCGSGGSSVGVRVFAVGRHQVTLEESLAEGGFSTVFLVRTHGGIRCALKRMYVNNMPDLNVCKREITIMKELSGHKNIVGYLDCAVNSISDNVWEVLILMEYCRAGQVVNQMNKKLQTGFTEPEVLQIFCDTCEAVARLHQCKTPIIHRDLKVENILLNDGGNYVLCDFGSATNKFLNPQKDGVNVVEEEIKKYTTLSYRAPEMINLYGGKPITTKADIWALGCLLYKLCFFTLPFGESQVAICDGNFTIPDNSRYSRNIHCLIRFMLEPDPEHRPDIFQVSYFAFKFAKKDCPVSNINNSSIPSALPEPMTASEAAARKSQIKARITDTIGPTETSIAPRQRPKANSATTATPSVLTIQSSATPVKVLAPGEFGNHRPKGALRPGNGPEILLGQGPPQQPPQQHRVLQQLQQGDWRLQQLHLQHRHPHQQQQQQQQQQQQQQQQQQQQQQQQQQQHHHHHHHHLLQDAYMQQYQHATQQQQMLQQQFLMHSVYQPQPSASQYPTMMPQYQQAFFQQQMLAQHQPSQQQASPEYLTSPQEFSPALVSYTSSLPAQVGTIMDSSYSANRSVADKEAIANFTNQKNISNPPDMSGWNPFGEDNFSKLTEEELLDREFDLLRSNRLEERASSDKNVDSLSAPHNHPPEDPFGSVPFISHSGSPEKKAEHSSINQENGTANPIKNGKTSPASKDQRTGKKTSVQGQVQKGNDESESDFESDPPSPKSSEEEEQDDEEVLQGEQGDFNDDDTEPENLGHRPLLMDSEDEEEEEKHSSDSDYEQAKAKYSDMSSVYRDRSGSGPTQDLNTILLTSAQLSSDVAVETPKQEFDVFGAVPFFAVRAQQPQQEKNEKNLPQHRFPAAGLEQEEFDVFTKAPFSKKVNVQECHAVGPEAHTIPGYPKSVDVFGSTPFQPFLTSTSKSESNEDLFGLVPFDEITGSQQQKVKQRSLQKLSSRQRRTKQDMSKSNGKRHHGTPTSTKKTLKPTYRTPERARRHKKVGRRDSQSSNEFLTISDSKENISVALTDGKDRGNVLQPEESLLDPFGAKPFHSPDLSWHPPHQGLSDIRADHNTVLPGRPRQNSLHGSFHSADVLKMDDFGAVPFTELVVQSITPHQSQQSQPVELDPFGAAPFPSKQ
Chain of Mitogen-activated protein kinase kinase kinase 1 (Homo sapiens) (Q13233 whole entry): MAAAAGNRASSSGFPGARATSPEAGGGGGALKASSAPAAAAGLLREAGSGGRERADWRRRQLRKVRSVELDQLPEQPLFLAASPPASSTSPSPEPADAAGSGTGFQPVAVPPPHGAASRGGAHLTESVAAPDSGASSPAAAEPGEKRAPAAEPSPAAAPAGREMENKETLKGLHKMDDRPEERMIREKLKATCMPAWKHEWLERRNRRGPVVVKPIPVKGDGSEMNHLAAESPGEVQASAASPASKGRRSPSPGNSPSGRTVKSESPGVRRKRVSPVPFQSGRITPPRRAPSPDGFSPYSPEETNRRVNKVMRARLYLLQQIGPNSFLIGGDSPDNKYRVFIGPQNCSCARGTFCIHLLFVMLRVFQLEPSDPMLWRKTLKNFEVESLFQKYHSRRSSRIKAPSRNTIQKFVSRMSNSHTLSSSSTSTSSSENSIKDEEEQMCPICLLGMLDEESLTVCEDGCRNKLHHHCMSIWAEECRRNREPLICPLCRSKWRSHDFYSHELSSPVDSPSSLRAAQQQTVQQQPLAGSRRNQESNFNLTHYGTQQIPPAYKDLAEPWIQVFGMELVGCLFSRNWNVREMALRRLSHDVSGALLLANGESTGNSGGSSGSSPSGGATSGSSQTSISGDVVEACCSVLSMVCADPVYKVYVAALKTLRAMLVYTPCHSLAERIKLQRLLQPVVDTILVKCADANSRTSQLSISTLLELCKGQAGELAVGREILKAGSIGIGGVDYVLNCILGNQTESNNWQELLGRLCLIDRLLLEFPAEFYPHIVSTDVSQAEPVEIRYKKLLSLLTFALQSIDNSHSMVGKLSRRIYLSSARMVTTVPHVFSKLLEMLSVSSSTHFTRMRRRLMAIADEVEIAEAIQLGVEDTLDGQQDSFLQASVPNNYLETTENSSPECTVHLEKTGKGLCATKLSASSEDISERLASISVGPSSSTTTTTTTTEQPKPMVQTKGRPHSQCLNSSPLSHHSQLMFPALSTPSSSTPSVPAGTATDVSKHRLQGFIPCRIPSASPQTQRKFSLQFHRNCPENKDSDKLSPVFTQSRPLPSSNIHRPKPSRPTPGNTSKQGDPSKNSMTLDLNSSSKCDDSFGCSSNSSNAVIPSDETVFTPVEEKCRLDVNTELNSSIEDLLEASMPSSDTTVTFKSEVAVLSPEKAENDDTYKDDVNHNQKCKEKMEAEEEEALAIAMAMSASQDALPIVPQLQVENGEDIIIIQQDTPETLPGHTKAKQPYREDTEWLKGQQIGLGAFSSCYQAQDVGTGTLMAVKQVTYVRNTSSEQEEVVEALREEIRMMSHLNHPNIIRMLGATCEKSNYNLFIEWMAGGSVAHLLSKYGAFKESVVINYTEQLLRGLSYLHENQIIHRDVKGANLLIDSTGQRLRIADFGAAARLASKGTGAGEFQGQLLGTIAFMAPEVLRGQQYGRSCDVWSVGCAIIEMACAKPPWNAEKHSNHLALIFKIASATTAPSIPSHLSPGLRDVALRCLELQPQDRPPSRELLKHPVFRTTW
Chain of Rho-associated protein kinase 1 (Homo sapiens) (Q13464 2-1354 limits assumed): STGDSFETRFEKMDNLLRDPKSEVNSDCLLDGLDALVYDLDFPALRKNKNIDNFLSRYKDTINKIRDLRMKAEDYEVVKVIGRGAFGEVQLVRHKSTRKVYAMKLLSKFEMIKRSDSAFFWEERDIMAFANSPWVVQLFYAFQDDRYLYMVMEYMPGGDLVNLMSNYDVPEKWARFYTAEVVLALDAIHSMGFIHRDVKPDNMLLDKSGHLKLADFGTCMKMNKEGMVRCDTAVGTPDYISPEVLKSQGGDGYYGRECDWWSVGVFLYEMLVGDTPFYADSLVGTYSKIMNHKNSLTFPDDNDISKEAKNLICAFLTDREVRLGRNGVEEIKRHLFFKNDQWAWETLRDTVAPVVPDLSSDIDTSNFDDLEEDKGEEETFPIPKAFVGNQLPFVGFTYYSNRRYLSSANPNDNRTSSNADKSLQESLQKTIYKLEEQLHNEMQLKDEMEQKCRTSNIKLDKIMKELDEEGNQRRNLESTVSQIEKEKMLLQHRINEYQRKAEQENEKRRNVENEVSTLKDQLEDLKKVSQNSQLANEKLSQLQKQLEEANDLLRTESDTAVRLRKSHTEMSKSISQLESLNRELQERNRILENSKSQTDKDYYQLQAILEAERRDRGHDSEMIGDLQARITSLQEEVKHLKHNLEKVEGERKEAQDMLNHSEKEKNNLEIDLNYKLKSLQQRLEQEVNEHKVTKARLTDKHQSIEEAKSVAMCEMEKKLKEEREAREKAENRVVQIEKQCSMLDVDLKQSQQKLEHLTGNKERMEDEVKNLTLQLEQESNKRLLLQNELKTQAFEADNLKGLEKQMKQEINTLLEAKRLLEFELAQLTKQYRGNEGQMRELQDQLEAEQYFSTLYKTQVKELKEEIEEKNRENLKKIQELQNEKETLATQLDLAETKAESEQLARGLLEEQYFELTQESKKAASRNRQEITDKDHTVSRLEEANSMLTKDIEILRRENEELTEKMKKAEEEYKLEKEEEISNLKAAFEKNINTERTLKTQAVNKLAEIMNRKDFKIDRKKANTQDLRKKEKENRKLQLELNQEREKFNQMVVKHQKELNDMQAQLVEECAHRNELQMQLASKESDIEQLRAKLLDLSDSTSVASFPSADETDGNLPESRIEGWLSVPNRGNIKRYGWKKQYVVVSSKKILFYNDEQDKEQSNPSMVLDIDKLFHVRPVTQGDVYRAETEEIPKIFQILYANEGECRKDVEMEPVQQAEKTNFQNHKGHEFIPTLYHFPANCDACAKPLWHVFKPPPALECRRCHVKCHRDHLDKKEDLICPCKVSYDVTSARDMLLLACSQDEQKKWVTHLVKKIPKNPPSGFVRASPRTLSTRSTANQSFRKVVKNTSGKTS

With `CN1C(=O)/C(=C2/C(=O)Nc3ccccc32)c2ccccc21` the Activity [1] was 100%, the Activity [2] was 95% and the Activity [3] was 100%. For the same compound, the Activity [4] was 95%, the Activity [5] was 92% and the Activity [6] was 69%. For the same compound, the Activity [7] was 88%, the Activity [8] was 100% and the Activity [9] was 91%. For the same compound, the Activity [10] was 33%, the Activity [11] was 86% and the Activity [12] was 93%. For the same compound, the Activity [13] was 100%, the Activity [14] was 100% and the Activity [15] was 83%. It also gave an Activity [16] of 94%, an Activity [17] of 55% and an Activity [18] of 66%. The Activity [19] was 75%, the Activity [20] was 100% and the Activity [21] was 89%. The Activity [22] was 100%, the Activity [23] was 100% and the Activity [24] was 84%. It also gave an Activity [25] of 87%, an Activity [26] of 100% and an Activity [27] of 82%. The Activity [28] was 72%, the Activity [29] was 100% and the Activity [30] was 100%.
